Assay results reported in patent publication US8183265B2, “2-adamantyl-butyramide derivatives as selective 11β-HSD1 inhibitors” (Merck Patent GmbH, priority 2006, dated 2012).

Biological target: Human recombinant 11beta-hydroxysteroid dehydrogenase type 1 (11beta-HSD1) (Homo sapiens, UniProt P28845)
Experiment: 11beta-HSD1 enzyme assay (HTRF cortisol)
Description: Mice liver microsome fractions were purchased from TEBU.
The 11beta-HSD1 enzyme assay was carried out in 96 well microtiter plates in a total volume of 100 μl containing 30 mM Hepes buffer, pH 7.4 with 1 mM EDTA, substrate mixture cortisone/NADPH (200 nM/200 μM), G-6-P (1 mM) and inhibitors in serial dilutions. […] Following mixing, the plates were shaken for 150 minutes at 37° C. The reactions were terminated with 10 μl Acid-18beta glycyrrhetinic stop solution. Determinations of cortisol levels in 11 beta-HSD1 preparations were monitored by HTRF (HTRF cortisol assay from Cis bio international).

Human recombinant 11beta-hydroxysteroid dehydrogenase type 1 (11beta-HSD1), sequence (P28845 whole entry): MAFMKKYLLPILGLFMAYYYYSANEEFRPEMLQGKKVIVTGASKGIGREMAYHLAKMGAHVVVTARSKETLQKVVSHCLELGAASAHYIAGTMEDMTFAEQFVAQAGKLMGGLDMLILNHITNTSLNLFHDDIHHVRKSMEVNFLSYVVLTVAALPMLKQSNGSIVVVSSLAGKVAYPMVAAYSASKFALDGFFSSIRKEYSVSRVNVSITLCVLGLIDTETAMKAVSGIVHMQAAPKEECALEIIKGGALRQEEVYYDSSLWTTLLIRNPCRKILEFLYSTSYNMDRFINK

- IC50: 0.045 µM
Structure (SMILES): COc1cc(Cl)ccc1OCC(C)(C)CC(=O)NC1C2CC3CC(C2)CC1C3 (stereo not shown)
